PMC11393688, “Design and synthesis of new 1,2,4-oxadiazole/quinazoline-4-one hybrids with antiproliferative activity as multitargeted inhibitors” (Frontiers in Chemistry, 2024)

Columns and labels:
EGFR = target: T1, EGFR (Homo sapiens, UniProt P00533); test: EGFR-TK inhibitory assay; format: biochemical; details: read-out: EGFR inhibition IC50 ± SEM
T1 construct: amino acids 645–1186; His6 (N); made in house; host or cells: Sf-9 insect cells (baculovirus; pBlueBacHis2B / pFASTBacHTc)
Protocol: 4.2.1.3. EGFR inhibitory assay
Sf-9 cells were infected for 72h for protein expression. […]
centrifugation for 20 min.
Histidine-linked proteins were first eluted with 250 and then […]
using wash buffer. Europium-tagged antiphosphotyrosine antibody (75 µL, 400 ng) was added to each well followed by incubation of 1h and then washing of the plates using buffer. The enhancement solution was added to each well and the signal was recorded at excitation and […]
The autophosphorylation percentage inhibition by compounds was calculated using the following equation: […]
(1 picture or pasted object on this page, not shown here)

A-549 cells = test: Apoptosis induction assay, Annexin V/PI flow cytometry; format: cell-based, human; details: A-549, Annexin V/PI, 24 h
Protocol: To assess 9b′s potential to induce apoptosis, A-549 cells were labeled with Annexin V/PI, grown for 24 h, and evaluated.
Compound 9b was investigated for its effects on cell cycle progression and apoptosis induction in A-549 cells. […] The cell line was labeled with PI/Annexin V, and flow cytometry was done with a BD FASC Caliber ([El-Sherief et al., 2018]). See Supplementary Appendix A for more details. […]
served as positive control. To study the effect of compounds on cell-based pERK1/2 activity in cancer cells, commercially available ELISA kits (Invitrogen) were used according to manufacturer’s instructions.
4.2.1.6. Cell apoptosis assay
Apoptosis was determined by flow cytometry based on the Annexin-V-fluoresce in isothiocyanate (FITC) and propidium iodide (PI) staining kit (BD Pharmingen, San Diego, USA).
(FITC) and propidium iodide (PI) staining kit (BD Pharmingen, San Diego, USA). Apoptotic cells were defined as Annexin-V-positive. Cells were grown to approximately ∼70% confluence and exposed to different concentrations of compounds (0, 2, 4, 6 and8 μmol/L) for 24 h. […] Subsequently, cells were analyzed by flow cytometry (Becton Dickinson, Franklin Lakes, and USA). […]
Computerized Prism 5 program was used to statistically analyzed data using one-way ANOVA test followed by Tukey’s as post ANOVA for multiple comparison at P ≤.05. […]

[1] = test system: pancreatic cancer (Panc-1) cell line; test: Antiproliferative MTT assay, Panc-1; format: cell-based; details: Homo sapiens, Panc-1 pancreatic cancer cells, read-out: Antiproliferative activity IC50 ± SEM Panc-1
Protocol: (§1) 4.2.1.2. Assay for antiproliferative effect
(§2) To explore the antiproliferative potential of compounds MTT assay was performed according to previously reported procedure using different cell lines to explore the antiproliferative potential of […]
(§3) calculate the total nuclear DNA, a fluorescent dye (propidium iodide, PI) is used which can attach to the DNA, thus offering a quick and precise technique. PI cannot pass through the cell membrane and its signal intensity can be considered as directly proportional to quantity of cellular DNA.
(§4) Cells whose cell membranes are damaged or have changed permeability are counted as dead ones.
(§5) The assay was performed by seeding the cells of different cell lines at a density of 3000-7500 cells/well (in 200µl medium) in culture plates followed by incubation for 24h at 37 °C in humidified 5% CO2/95% air atmospheric conditions. The medium was removed; the compounds were added to the plates at 10 µM concentrations (in 0.1% DMSO) in triplicates, followed by incubation for 48 h. DMSO (0.1%) was used as control. After incubation, medium was removed […]
(§6) 80 °C, the plates were allowed to freeze for 24 h, followed by thawing at 25 °C. […]
(§7) (Polar-Star BMG Tech) was used to record the readings at excitation and emission wavelengths of 530 and 620 nm for each well. The percentage cytotoxicity of compounds was calculated using […]
(§8) Where ATC= Absorbance of treated cells and AC= Absorbance of control. Erlotinib was used as positive control in the assay.

[2] = Cell viability, MTT test on normal cell line; format: cell-based; details: human, MCF-10A mammary gland epithelial cells (normal cell line), MCF-10A normal cells, 4 days incubation
Protocol: The human mammary gland epithelial (MCF-10A) normal cell line was used to test the viability of novel compounds 9a-o ([Mahmoud et al., 2022]; [Mekheimer et al., 2022]). After 4 days of incubation on MCF-10A cells, the cell viability of compounds 9a-o was determined using the MTT test.
The human mammary gland epithelial (MCF-10A) normal cell line was used to test the viability of compounds 9a-o ([Mahmoud et al., 2022]; [Mekheimer et al., 2022]). Refer to Supplementary Appendix A (Supplementary Material) for more details.
4.2. Biological evaluation
4.2.1. Cytotoxic activity using MTT Assay and evaluation of IC50
MTT assay was carried out to study the effect of compounds on mammary epithelial cells (MCF-10A). The medium in which cells were propagated contained Dulbecco's modified Eagle's medium (DMEM)/ Ham's F-12 medium (1:1) supplemented with epidermal growth factor (20 ng/mL), hydrocortisone (500 ng/mL), insulin (10 μg/mL), 2 mM glutamine and 10% foetal calf serum.
After every 2-3 days, the cells were passaged using trypsin ethylenediamine tetra acetic acid (EDTA). The cells were seeded at a density of 10^4 cells mL-1 in flat-bottomed culture plates containing 96 wells each. After 24 h, medium was removed from the plates and the compounds in (in 0.1% DMSO) were added (in 200 μL medium to yield a final concentration of 0.1% v/v) to the wells of plates. A single compound was designated with four wells followed by incubation of plates for 96h at 37°C. After incubation, medium was removed completely from the plates followed by addition of MTT (0.4 mg/mL in medium) to each well and subsequent incubation of plates for 3h. MTT (along with the medium) was removed and DMSO (150μL) was added to each well of the culture plates, followed by vertexing and subsequent measurement of absorbance (at 540 nm) using microplate reader. The data are shown as percentage inhibition of proliferation in comparison with controls containing 0.1% DMSO.

[3] = test system: breast cancer (MCF-7) cell line; test: Antiproliferative MTT assay, MCF-7; format: cell-based; details: Homo sapiens, MCF7, MCF-7 breast cancer cells, read-out: Antiproliferative activity IC50 ± SEM MCF-7
Protocol: as §1, §2, §3, §4, §5, §6, §7, §8

[4] = test system: colon cancer (HT-29) cell line; test: Antiproliferative MTT assay, HT-29; format: cell-based; details: Homo sapiens, HT-29 colon cancer cells, read-out: Antiproliferative activity IC50 ± SEM HT-29
EGFR^T790M = EGFR^T790M (Homo sapiens, UniProt P00533, T790M); test: EGFR^T790M inhibitory assay (HTRF KinEASE-TK)
Sequence of EGFR^T790M (P00533 25-1210 T790M): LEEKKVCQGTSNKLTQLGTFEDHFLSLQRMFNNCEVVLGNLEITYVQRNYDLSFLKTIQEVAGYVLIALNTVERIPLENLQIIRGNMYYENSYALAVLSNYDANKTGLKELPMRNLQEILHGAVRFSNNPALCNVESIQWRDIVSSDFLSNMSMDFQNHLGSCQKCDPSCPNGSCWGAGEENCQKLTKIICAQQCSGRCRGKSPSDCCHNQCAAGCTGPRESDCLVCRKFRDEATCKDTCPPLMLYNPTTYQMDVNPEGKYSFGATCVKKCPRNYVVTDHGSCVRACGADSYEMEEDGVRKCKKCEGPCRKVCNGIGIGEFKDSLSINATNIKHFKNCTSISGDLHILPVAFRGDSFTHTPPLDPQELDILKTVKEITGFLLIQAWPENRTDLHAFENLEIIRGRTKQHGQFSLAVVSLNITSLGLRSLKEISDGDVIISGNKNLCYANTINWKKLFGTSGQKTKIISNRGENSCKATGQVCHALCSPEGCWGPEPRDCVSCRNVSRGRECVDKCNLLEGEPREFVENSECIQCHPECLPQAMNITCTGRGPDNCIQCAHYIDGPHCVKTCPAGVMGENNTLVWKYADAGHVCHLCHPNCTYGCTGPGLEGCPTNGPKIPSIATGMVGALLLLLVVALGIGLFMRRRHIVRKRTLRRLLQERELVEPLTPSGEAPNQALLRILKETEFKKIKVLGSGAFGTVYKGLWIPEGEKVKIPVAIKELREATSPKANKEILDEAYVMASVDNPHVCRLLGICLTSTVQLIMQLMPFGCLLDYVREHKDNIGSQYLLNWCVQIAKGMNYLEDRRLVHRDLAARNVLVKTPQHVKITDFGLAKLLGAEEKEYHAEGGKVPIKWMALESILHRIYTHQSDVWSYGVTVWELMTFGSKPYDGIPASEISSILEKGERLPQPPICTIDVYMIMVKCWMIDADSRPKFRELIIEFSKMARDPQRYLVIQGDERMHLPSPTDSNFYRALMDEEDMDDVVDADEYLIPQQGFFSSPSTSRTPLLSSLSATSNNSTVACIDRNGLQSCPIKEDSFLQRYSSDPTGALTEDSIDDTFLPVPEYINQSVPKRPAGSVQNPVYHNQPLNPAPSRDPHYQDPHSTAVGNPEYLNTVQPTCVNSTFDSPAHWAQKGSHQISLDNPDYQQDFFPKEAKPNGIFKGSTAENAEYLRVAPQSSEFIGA

T1 sequence (P00533 669-1210): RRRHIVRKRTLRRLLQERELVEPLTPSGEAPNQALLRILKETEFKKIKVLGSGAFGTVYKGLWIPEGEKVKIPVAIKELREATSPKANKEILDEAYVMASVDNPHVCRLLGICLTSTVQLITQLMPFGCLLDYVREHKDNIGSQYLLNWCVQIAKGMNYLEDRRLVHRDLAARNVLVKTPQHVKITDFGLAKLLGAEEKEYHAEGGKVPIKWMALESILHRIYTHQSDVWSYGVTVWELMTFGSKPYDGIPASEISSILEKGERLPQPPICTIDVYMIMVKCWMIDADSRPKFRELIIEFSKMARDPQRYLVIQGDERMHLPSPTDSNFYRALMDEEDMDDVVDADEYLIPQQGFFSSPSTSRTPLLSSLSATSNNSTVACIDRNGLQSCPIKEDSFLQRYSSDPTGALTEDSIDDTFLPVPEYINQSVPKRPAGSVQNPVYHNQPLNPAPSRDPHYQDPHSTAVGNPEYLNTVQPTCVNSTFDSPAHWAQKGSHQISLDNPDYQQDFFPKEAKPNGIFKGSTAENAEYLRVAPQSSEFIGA

IC50 (EGFR): 57 ± 4 nM
IC50 [1]: 24 ± 2 nM
IC50 [3]: 26 ± 2 nM
IC50 [4]: 24 ± 2 nM
IC50 (EGFR^T790M): 10 ± 1 nM
SMILES: O=c1c2ccccc2nc(SCc2nc(-c3ccc(Cl)cc3)no2)n1-c1ccccc1 [Compound 9b, 2-((3-(4-Chlorophenyl)-1,2,4-oxadiazol-5-yl)methylthio)-3 phenylquinazolin-4(3H)-one]
Necrosis percentage (A-549 cells): 6.43%
viability at 96 h, 50 µM [2]: 89%
